Literature values as cited in patent US20240207270A1, “COMPOUNDS AND COMPOSITIONS FOR MODULATING LIPID METABOLISM” (WaveBreak Inc., priority 2021, published 2024).

Target: ROCK
Conditions: ATP-competitive inhibitor of ROCK

For `Cc1cncc2cccc(S(=O)(=O)N3CCCNC[C@@H]3C)c12` [(S)-H-1152], the Ki is listed as 1.6 nM.
